The target in the test is T1, mGlyT-1b (Mus musculus, UniProt P28571).
T1 construct: host or cells: Flp-in-CHO cells
T1 sequence (P28571 1-651 isoform P28571-2): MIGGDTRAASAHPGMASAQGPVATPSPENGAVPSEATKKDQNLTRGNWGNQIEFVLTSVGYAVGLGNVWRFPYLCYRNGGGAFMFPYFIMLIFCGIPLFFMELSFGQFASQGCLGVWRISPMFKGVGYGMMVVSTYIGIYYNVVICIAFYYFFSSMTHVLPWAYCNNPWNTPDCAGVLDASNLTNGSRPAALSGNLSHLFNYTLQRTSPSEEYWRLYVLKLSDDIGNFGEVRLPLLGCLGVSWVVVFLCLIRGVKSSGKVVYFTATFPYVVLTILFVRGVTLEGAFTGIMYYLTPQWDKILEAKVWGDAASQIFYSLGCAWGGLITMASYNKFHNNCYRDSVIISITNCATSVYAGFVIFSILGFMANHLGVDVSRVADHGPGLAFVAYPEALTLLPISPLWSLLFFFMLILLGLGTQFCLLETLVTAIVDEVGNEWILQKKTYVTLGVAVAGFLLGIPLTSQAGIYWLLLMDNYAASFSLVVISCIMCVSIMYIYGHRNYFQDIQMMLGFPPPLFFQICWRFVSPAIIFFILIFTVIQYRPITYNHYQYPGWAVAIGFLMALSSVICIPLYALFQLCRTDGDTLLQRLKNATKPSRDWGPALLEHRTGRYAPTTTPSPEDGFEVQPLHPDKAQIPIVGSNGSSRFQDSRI
The test can be described thus: Glycine Uptake Inhibition Assay (mGlyT-1b). The class given is cell-based. Particulars: [3H]-glycine uptake inhibition at GlyT-1, Flp-in-CHO cells transfected with mGlyT-1b cDNA. A digest of the protocol:
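Flp-in CHO cells stably expressing mouse GlyT-1b preincubated 20 min at 22 °C with inhibitor in pH 7.4 uptake buffer, then given 60 nM [3H]-glycine plus 25 μM unlabelled glycine. Cell radioactivity counted by scintillation; nonspecific uptake defined with 10 mM glycine; IC50 from concentration range.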
In turn, `CC(C)COc1ccc(S(C)(=O)=O)cc1C(=O)N1CCN(c2ccc(C#N)c(F)c2F)CC1` [compound 128] gave a 50% inhibitory concentration (IC50) of 20 nM. `CC(C)Oc1ccc(S(C)(=O)=O)cc1C(=O)N1CCN(c2cc(F)c(S(=O)(=O)C3CC3)cc2F)CC1` [compound 595]: half-maximal inhibition (IC50) was put at 49 nM. Compound `CNS(=O)(=O)c1ccc(OCC(C)C)c(C(=O)N2CCN(c3ccc(C(C)=O)cc3F)CC2)c1` [compound 514] showed a concentration for half-maximal inhibition (IC50) of 45 nM. The result for `CC(Oc1ccc(S(C)(=O)=O)cc1C(=O)N1CCN(c2ccc(Br)cn2)CC1)C(F)(F)F` (racemic) [compound 435] reads 29 nM; that for `CS(=O)(=O)c1ccc(OCC2CCC2)c(C(=O)N2CCN(c3c(F)cc(C#N)cc3F)CC2)c1` [compound 147], 31 nM. Turning to `O=C(c1cc([N+](=O)[O-])ccc1OCC1CCC1)N1CCN(c2ccc(C(F)(F)F)cc2)CC1` [Example 64, (2-Cyclobutylmethoxy-5-nitro-phenyl)-[4-(4-trifluoromethyl-phenyl)-piperazin-1-yl]-methanone], inhibition was half-maximal at 25 nM (IC50). `O=C(c1cc([N+](=O)[O-])ccc1OC1CCOCC1)N1CCN(c2ccc(C(F)(F)F)cc2)CC1` [Example 95, [5-Nitro-2-(tetrahydro-pyran-4-yloxy)-phenyl]-[4-(4-trifluoromethyl-phenyl)-piperazin-1-yl]-methanone] had an IC50 of 35 nM. The compound `CC(C)Oc1ccc(S(C)(=O)=O)cc1C(=O)N1CCN(c2ccc(C(F)(F)F)cc2C#N)CC1` [compound 363] had an IC50 of 8 nM. As for `CC(=O)c1ccc(N2CCN(C(=O)c3cc(S(C)(=O)=O)ccc3OC3CCCCC3)CC2)c(F)c1` [compound 281], the figure is 21 nM; as for `CC(Oc1ccc(S(C)(=O)=O)cc1C(=O)N1CCN(c2cc(F)c(C#N)c(F)c2)CC1)C(F)(F)F` (racemic) [compound 262], 42 nM; as for `CC(Oc1ccc(S(C)(=O)=O)cc1C(=O)N1CCN(c2ccc(C(F)(F)F)cn2)CC1)C(F)(F)F` (single isomer, unassigned) [compound 465], 40 nM. The result for `CC(C)COc1ccc(S(C)(=O)=O)cc1C(=O)N1CCN(c2ccc(S(=O)(=O)C(F)(F)F)cc2)CC1` [Example 330, (2-Isobutoxy-5-methanesulfonyl-phenyl)-[4-(4-trifluoromethanesulfonyl-phenyl)-piperazin-1-yl]-methanone] reads 18 nM; that for `CCS(=O)(=O)c1ccc(N2CCN(C(=O)c3cc(S(C)(=O)=O)ccc3OCC3CC3)CC2)c(F)c1` [compound 562], 44 nM. As for `CNS(=O)(=O)c1ccc(OCCC(F)(F)F)c(C(=O)N2CCN(c3ccc(C(F)(F)F)cc3)CC2)c1` [compound 531], the figure is 28 nM. Compound `CC(=O)c1ccc(N2CCN(C(=O)c3cc(S(C)(=O)=O)ccc3OCC3CCC3)CC2)c(F)c1` [compound 142] registered an IC50 of 34 nM.

On to `CS(=O)(=O)c1ccc(OC2CCCC2)c(C(=O)N2CCN(c3ccc(C(F)(F)F)cc3C#N)CC2)c1` [compound 373], for which the IC50 was determined as 35 nM. The result for `CNS(=O)(=O)c1ccc(OC(C)C)c(C(=O)N2CCN(c3ccc(C#N)cc3F)CC2)c1` [compound 506] reads 46 nM. As for `CNS(=O)(=O)c1ccc(OC(C)C(F)(F)F)c(C(=O)N2CCN(c3ccc(C#N)c(F)c3F)CC2)c1` (racemic) [compound 558], the figure is 29 nM. The result for `CC(C)COc1ccc(S(C)(=O)=O)cc1C(=O)N1CCN(c2c(F)cc(C#N)cc2F)CC1` [compound 164] reads 19 nM; that for `CNS(=O)(=O)c1ccc(OCC2CC2)c(C(=O)N2CCN(c3ccc(C(F)(F)F)cc3)CC2)c1` [compound 529], 13 nM. With `CS(=O)(=O)c1ccc(OC2CCCC2)c(C(=O)N2CCN(c3ccc(C(F)(F)F)nc3)CC2)c1` [compound 430], the concentration for half-maximal inhibition (IC50) is 37 nM.

`CCC(C)Oc1ccc(S(C)(=O)=O)cc1C(=O)N1CCN(c2ccc(C#N)cc2F)CC1` (racemic) [compound 321]: the concentration for half-maximal inhibition (IC50) came out at 18 nM. As for `CS(=O)(=O)c1ccc(OCC(F)(F)C(F)F)c(C(=O)N2CCN(c3ccc(C#N)cc3F)CC2)c1` [compound 210], the figure is 39 nM. `CC(C)COc1ccc(S(C)(=O)=O)cc1C(=O)N1CCN(c2ccc(C(F)(F)F)cc2C#N)CC1` [compound 375] showed an IC50 of 35 nM.

In the case of `O=C(c1cc([N+](=O)[O-])ccc1OC1CC2CCC1C2)N1CCN(c2ccc(C(F)(F)F)cc2)CC1` (centres unmarked) [Example 88, [2-(Bicyclo[2.2.1]hept-2-yloxy)-5-nitro-phenyl]-[4-(4-trifluoromethyl-phenyl)-piperazin-1-yl]-methanone], half-maximal inhibition (IC50) was put at 7 nM.

In turn, `CNS(=O)(=O)c1ccc(OCC2CC2)c(C(=O)N2CCN(c3ccc(C#N)cc3F)CC2)c1` [compound 509] yielded an IC50 of 30 nM.

In turn, `CNS(=O)(=O)c1ccc(OCC(C)(C)C)c(C(=O)N2CCN(c3ccc(C(F)(F)F)cc3)CC2)c1` [compound 525] returned a half-maximal inhibitory concentration (IC50) of 21 nM. `CC(Oc1ccc(S(C)(=O)=O)cc1C(=O)N1CCN(c2ncc(C(F)(F)F)cc2F)CC1)C(F)(F)F` (racemic) [compound 438] came in with an IC50 of 47 nM.

Consider `CC(C)(C)COc1ccc(S(C)(=O)=O)cc1C(=O)N1CCN(c2ccc(S(C)(=O)=O)cc2F)CC1` [compound 296], for which half-maximal inhibition (IC50) required 43 nM. `CS(=O)(=O)c1ccc(OCCC(F)(F)F)c(C(=O)N2CCN(c3ccc(C(F)(F)F)cc3F)CC2)c1` [compound 117] yielded a half-inhibitory concentration (IC50) of 44 nM. The result for `CC(Oc1ccc(S(C)(=O)=O)cc1C(=O)N1CCN(c2ncc(C(F)(F)F)cc2Cl)CC1)C(F)(F)F` (racemic) [compound 407] reads 27 nM; that for `CS(=O)(=O)c1ccc(OCC2CCC2)c(C(=O)N2CCN(c3ccc(C#N)cc3F)CC2)c1` [compound 138], 17 nM. The result for `CC(C)(C)COc1ccc(S(C)(=O)=O)cc1C(=O)N1CCN(c2ccc(C#N)cc2)CC1` [compound 290] reads 17 nM.

In the case of `CC(=O)c1ccc(N2CCN(C(=O)c3cc(S(C)(=O)=O)ccc3OCCC(F)(F)F)CC2)c(F)c1` [compound 118], the midpoint of inhibition, the IC50, lay at 24 nM. The result for `CS(=O)(=O)c1ccc(OC2CCC2)c(C(=O)N2CCN(c3ccc(C(F)(F)F)c(F)c3)CC2)c1` [compound 317] reads 41 nM; that for `O=C(c1cc([N+](=O)[O-])ccc1OCC1CC1)N1CCN(c2ccc(C(F)(F)F)cc2)CC1` [Example 63, (2-Cyclopropylmethoxy-5-nitro-phenyl)-[4-(4-trifluoromethyl-phenyl)-piperazin-1-yl]-methanone], 28 nM; that for `O=C(c1cc([N+](=O)[O-])ccc1OCC(F)(F)C(F)F)N1CCN(c2ccc(C(F)(F)F)cc2)CC1` [Example 80, [5-Nitro-2-(2,2,3,3-tetrafluoro-propoxy)-phenyl]-[4-(4-trifluoromethyl-phenyl)-piperazin-1-yl]-methanone], 29 nM. The compound `CCS(=O)(=O)c1ccc(N2CCN(C(=O)c3cc(S(C)(=O)=O)ccc3OCC(C)C)CC2)c(F)c1` [compound 566] returned an IC50 of 30 nM. As for `CC(C)Oc1ccc([N+](=O)[O-])cc1C(=O)N1CCN(c2ccc(C(F)(F)F)cc2)CC1` [Example 62, (2-Isopropoxy-5-nitro-phenyl)-[4-(4-trifluoromethyl-phenyl)-piperazin-1-yl]-methanone], the figure is 17 nM. As for `CS(=O)(=O)c1ccc(OC2CCCC2)c(C(=O)N2CCN(c3ccc(S(=O)(=O)C4CC4)cc3F)CC2)c1` [compound 573], the figure is 37 nM; as for `CS(=O)(=O)c1ccc(OCC2CCC2)c(C(=O)N2CCN(c3ccc(C(F)(F)F)cc3)CC2)c1` [compound 139], 24 nM; as for `CS(=O)(=O)c1ccc(OC2CCCCC2)c(C(=O)N2CCN(c3ccc(C(F)(F)F)cc3)CC2)c1` [compound 285], 42 nM. With `N#Cc1ccc(N2CCN(C(=O)c3cc(S(=O)(=O)C4CC4)ccc3OC3CCCC3)CC2)c(F)c1` [compound 546], half-maximal inhibition (IC50) required 35 nM. As for `CS(=O)(=O)c1ccc(OC2CCCC2)c(C(=O)N2CCN(c3cc(F)c(C#N)cc3F)CC2)c1` [compound 135], the figure is 41 nM; as for `CS(=O)(=O)c1ccc(OCC(F)(F)F)c(C(=O)N2CCN(c3ccc(C(F)(F)F)cc3F)CC2)c1` [Example 28, [4-(2-fluoro-4-trifluoromethyl-phenyl)-piperazin-1-yl]-[5-methanesulfonyl-2-(2,2,2-trifluoro-ethoxy)-phenyl]-methanone], 12 nM. The result for `CS(=O)(=O)c1ccc(OCCC(F)(F)F)c(C(=O)N2CCN(c3ccc(C(F)(F)F)c(F)c3)CC2)c1` [compound 116] reads 19 nM. Turning to `CNS(=O)(=O)c1ccc(OCC(C)(C)C)c(C(=O)N2CCN(c3ccc(C(C)=O)cc3F)CC2)c1` [compound 515], the IC50 was found to be 40 nM.

Source of the values: US7605163B2, “Benzoyl-piperazine derivatives” (Hoffmann-La Roche Inc., priority 2003, dated 2009).
